Toxic doses and inconclusive results are not listed. The calls were made as follows: active = survival T/C of 150% or more; inactive = T/C below 125% in these data.
Tested on: P388 leukemia ip, CD2F1 mice, survival T/C
Test: NCI In Vivo Anticancer Drug Screen. Data for tumor model P388 Leukemia (intraperitoneal) in CD2F1 (CDF1) mice
Conditions: endpoint: median survival time, higher = longer survival
Procedure, shortened: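 Mice carrying the transplanted tumor received test compound or vehicle. Survival was recorded in each group, and the value is the treated-group measurement divided by that of the vehicle-treated control group.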

[1] = dose: 100.0 mg/kg/injection, schedule: Q01DX009 (ip), vehicle: Klucel (hydroxypropylcellulose) (HPC)
[2] = dose: 200.0 mg/kg/injection, schedule: Q01DX009 (ip), vehicle: Klucel (hydroxypropylcellulose) (HPC)
[3] = dose: 50.0 mg/kg/injection, schedule: Q01DX005 (ip), vehicle: saline with Tween-80
[4] = dose: 100.0 mg/kg/injection, schedule: Q01DX005 (ip), vehicle: saline with Tween-80
[5] = dose: 25.0 mg/kg/injection, schedule: Q01DX009 (ip), vehicle: saline
[6] = dose: 100.0 mg/kg/injection, schedule: Q04DX003 (ip), vehicle: saline
[7] = dose: 200.0 mg/kg/injection, schedule: Q04DX003 (ip), vehicle: saline
[8] = dose: 400.0 mg/kg/injection, schedule: Q04DX003 (ip), vehicle: saline
[9] = dose: 200.0 mg/kg/injection, schedule: Q01DX005 (ip), vehicle: saline with Tween-80

Measured: T/C

CCC(=O)O[C@H]1CC[C@H]2[C@@H]3CC[C@H]4CCCC[C@]4(C)[C@H]3CC[C@]12C
inactive: [1] 90 % of control | [2] 95 % of control | dose: 400.0 mg/kg/injection, schedule: Q01DX009 (ip), vehicle: Klucel (hydroxypropylcellulose) (HPC) 105 % of control

CN(C)CC1CCc2c(ccc3ccccc23)C1=O (configuration not stated)
inactive: dose: 12.5 mg/kg/injection, schedule: Q01DX005 (ip), vehicle: saline with Tween-80 100 % of control | dose: 25.0 mg/kg/injection, schedule: Q01DX005 (ip), vehicle: saline with Tween-80 103 % of control | [3] 100 % of control | [4] 104 % of control

CNCCc1c(C2[C@@H]3[C@H](C=C(C)CC3(C)C)[C@]34Nc5ccccc5[C@]23CCN4C)[nH]c2ccccc12 (some centres not stated)
inactive: dose: 4.0 mg/kg/injection, schedule: Q01DX009 (ip), vehicle: saline 100 % of control | dose: 8.0 mg/kg/injection, schedule: Q01DX009 (ip), vehicle: saline 94 % of control | dose: 16.0 mg/kg/injection, schedule: Q01DX009 (ip), vehicle: saline 103 % of control | dose: 32.0 mg/kg/injection, schedule: Q01DX009 (ip), vehicle: saline 100 % of control

C[C@H]1[C@H](O)[C@H]2[C@@H](CCC3=CC(=O)CC[C@@]32C)[C@@H]2CC[C@H](O)[C@@]12C
inactive: dose: 100.0 mg/kg/injection, schedule: Q04DX003 (ip), vehicle: saline with Tween-80 104 % of control | dose: 200.0 mg/kg/injection, schedule: Q04DX003 (ip), vehicle: saline with Tween-80 100 % of control | dose: 400.0 mg/kg/injection, schedule: Q04DX003 (ip), vehicle: saline with Tween-80 100 % of control

O=C(O)C1CCCCC12OCCO2 (configuration not stated)
inactive: dose: 100.0 mg/kg/injection, schedule: Q04DX002 (ip), vehicle: saline 102 % of control | dose: 200.0 mg/kg/injection, schedule: Q04DX002 (ip), vehicle: saline 106 % of control | dose: 400.0 mg/kg/injection, schedule: Q04DX002 (ip), vehicle: saline 98 % of control

CCOc1cc2c(cc1C(C)c1ccc(O)cc1)OCO2 (configuration not stated)
inactive: dose: 50.0 mg/kg/injection, schedule: Q01DX005 (ip), vehicle: distilled water + Tween-80 102 % of control | dose: 100.0 mg/kg/injection, schedule: Q01DX005 (ip), vehicle: distilled water + Tween-80 105 % of control | dose: 200.0 mg/kg/injection, schedule: Q01DX005 (ip), vehicle: distilled water + Tween-80 109 % of control

C[S+](C)c1ccccc1NC(C)(C)C
inactive: dose: 6.25 mg/kg/injection, schedule: Q01DX009 (ip), vehicle: saline + alcohol 99 % of control | dose: 12.5 mg/kg/injection, schedule: Q01DX009 (ip), vehicle: saline + alcohol 100 % of control | dose: 25.0 mg/kg/injection, schedule: Q01DX009 (ip), vehicle: saline + alcohol 96 % of control | [5] 101 % of control

CC(C)(F)c1nc2ncncc2[nH]c1=O
inactive: dose: 100.0 mg/kg/injection, schedule: Q01DX001 (ip), vehicle: saline with Tween-80 103 % of control | dose: 200.0 mg/kg/injection, schedule: Q01DX001 (ip), vehicle: saline with Tween-80 103 % of control | dose: 400.0 mg/kg/injection, schedule: Q01DX001 (ip), vehicle: saline with Tween-80 93 % of control

C[CH2][Ge]([CH2]C)[CH2]C.C[CH2][Ge]([CH2]C)[CH2]C.C[CH2][Ge]([CH2]C)[S][Ge]([CH2]C)[CH2]C
inactive: dose: 60.0 mg/kg/injection, schedule: Q01DX005 (ip), vehicle: saline with Tween-80 96 % of control | dose: 120.0 mg/kg/injection, schedule: Q01DX005 (ip), vehicle: saline with Tween-80 100 % of control | dose: 240.0 mg/kg/injection, schedule: Q01DX005 (ip), vehicle: saline with Tween-80 99 % of control

COc1ccc(CC(C)NCC(O)c2ccc(O)c(NC=O)c2)cc1 (configuration not stated)
inactive: dose: 6.25 mg/kg/injection, schedule: Q01DX009 (ip), vehicle: saline 100 % of control | dose: 12.5 mg/kg/injection, schedule: Q01DX009 (ip), vehicle: saline 101 % of control | [5] 99 % of control | dose: 50.0 mg/kg/injection, schedule: Q01DX009 (ip), vehicle: suspension in saline 99 % of control | dose: 200.0 mg/kg/injection, schedule: Q01DX009 (ip), vehicle: suspension in saline 91 % of control

C[CH2][Ge]([CH2]C)[O]C(=O)C(=O)[O][Ge]([CH2]C)[CH2]C
inactive: dose: 12.5 mg/kg/injection, schedule: Q01DX005 (ip), vehicle: Klucel (hydroxypropylcellulose) (HPC) 100 % of control | dose: 25.0 mg/kg/injection, schedule: Q01DX005 (ip), vehicle: Klucel (hydroxypropylcellulose) (HPC) 103 % of control | dose: 50.0 mg/kg/injection, schedule: Q01DX005 (ip), vehicle: Klucel (hydroxypropylcellulose) (HPC) 118 % of control

NC(=O)N/N=C1\C(=O)N(c2ccc(S(N)(=O)=O)cc2)C(=O)C1C(=O)Nc1ccc(S(N)(=O)=O)cc1 (configuration not stated)
inactive: dose: 60.0 mg/kg/injection, schedule: Q01DX005 (ip), vehicle: saline 106 % of control | dose: 120.0 mg/kg/injection, schedule: Q01DX005 (ip), vehicle: saline 102 % of control | dose: 240.0 mg/kg/injection, schedule: Q01DX005 (ip), vehicle: saline 102 % of control

C=CCC(C(=O)OC)c1ccc(F)cc1 (configuration not stated)
inactive: dose: 0.06 mg/kg/injection, schedule: Q01DX009 (ip), vehicle: saline 111 % of control | dose: 0.13 mg/kg/injection, schedule: Q01DX009 (ip), vehicle: saline 102 % of control | dose: 0.25 mg/kg/injection, schedule: Q01DX009 (ip), vehicle: saline 101 % of control | dose: 1.0 mg/kg/injection, schedule: Q01DX009 (ip), vehicle: saline 88 % of control

O=C(CCS(=O)(=O)CCC(=O)c1ccco1)c1ccco1
inactive: [6] 94 % of control | [7] 94 % of control | [8] 90 % of control

Nc1nc(N)c2cnnn2n1
inactive: [3] 95 % of control | [4] 102 % of control | [9] 110 % of control

CCCCN(CCCC)c1nsc(N2CCOCC2)n1
inactive: dose: 50.0 mg/kg/injection, schedule: Q01DX009 (ip), vehicle: saline with Tween-80 94 % of control | dose: 100.0 mg/kg/injection, schedule: Q01DX009 (ip), vehicle: saline with Tween-80 100 % of control | dose: 200.0 mg/kg/injection, schedule: Q01DX009 (ip), vehicle: saline with Tween-80 108 % of control

COc1c(O)ccc([N+](=O)[O-])c1OC
inactive: dose: 12.5 mg/kg/injection, schedule: Q01DX009 (ip), vehicle: other 96 % of control | dose: 25.0 mg/kg/injection, schedule: Q01DX009 (ip), vehicle: other 98 % of control | dose: 50.0 mg/kg/injection, schedule: Q01DX009 (ip), vehicle: other 105 % of control | dose: 100.0 mg/kg/injection, schedule: Q01DX009 (ip), vehicle: other 102 % of control | dose: 200.0 mg/kg/injection, schedule: Q01DX009 (ip), vehicle: other 97 % of control

COC(CCCNCCCC(OC)OC)OC
inactive: dose: 50.0 mg/kg/injection, schedule: Q01DX005 (ip), vehicle: saline 102 % of control | dose: 100.0 mg/kg/injection, schedule: Q01DX005 (ip), vehicle: saline 103 % of control | dose: 200.0 mg/kg/injection, schedule: Q01DX005 (ip), vehicle: saline 103 % of control

COc1cccc(CN2CCN(N=O)CC2)c1
inactive: dose: 25.0 mg/kg/injection, schedule: Q01DX009 (ip), vehicle: Klucel (hydroxypropylcellulose) (HPC) 105 % of control | dose: 50.0 mg/kg/injection, schedule: Q01DX009 (ip), vehicle: Klucel (hydroxypropylcellulose) (HPC) 97 % of control | [1] 95 % of control | [2] 105 % of control

CC(=O)NCc1ccccc1N1CCCC1
inactive: [6] 101 % of control | [7] 106 % of control | [8] 101 % of control

Cc1cc(C)c(C#N)c(Sc2nc(C)c([N+](=O)[O-])c(C)c2C#N)n1
inactive: [3] 96 % of control | [4] 100 % of control | [9] 102 % of control

Reference: PubChem BioAssay AID330 (DTP/NCI, 2004)
